Each structure is given as a SMILES string.

In the assay the target is hemopexin (Homo sapiens, UniProt P02790). Put plainly: biochemical.
Chain of hemopexin (P02790 24-462): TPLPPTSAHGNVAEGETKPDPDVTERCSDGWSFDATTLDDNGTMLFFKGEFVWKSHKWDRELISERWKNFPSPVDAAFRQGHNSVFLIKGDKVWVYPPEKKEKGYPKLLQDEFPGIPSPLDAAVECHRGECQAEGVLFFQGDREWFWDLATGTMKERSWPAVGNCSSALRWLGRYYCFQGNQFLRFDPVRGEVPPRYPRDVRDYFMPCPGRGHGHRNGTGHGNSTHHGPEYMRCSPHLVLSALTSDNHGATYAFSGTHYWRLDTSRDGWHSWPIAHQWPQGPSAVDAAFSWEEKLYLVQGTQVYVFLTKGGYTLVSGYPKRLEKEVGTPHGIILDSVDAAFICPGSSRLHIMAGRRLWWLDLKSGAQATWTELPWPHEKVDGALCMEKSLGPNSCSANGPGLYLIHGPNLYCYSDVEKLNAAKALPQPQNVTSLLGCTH

As usually defined, the Kd is a measure of binding affinity in units of concentration. `C=CC1=C(C)C2=Cc3c(C=C)c(C)c4[n]3[Fe+][n]3c(c(C)c(CCC(=O)O)c3=CC3=NC(=C4)C(C)=C3CCC(=O)O)=CC1=N2` [heme]: the Kd was 0.32 ± 0.04 nM.

The values above are taken from doi:10.1101/2020.04.16.044321v1 (biorxiv, 2020).
